In patent US20230338363A1, “COMBINATION CHEMO-IMMUNOTHERAPY FOR PANCREATIC CANCER USING THE IMMUNOGENIC EFFECTS OF AN IRINOTECAN SILICASOME NANOCARRIER PLUS ANTI-PD-1” (The Regents of the University of California, priority 2020, published 2023):
Structures can show the parent of a compound that is named as a salt.

Assays:
[1] = test system: KPC cells; test: ER stress: CHOP and cleaved caspase-3 western blotting, total ROS, intracellular Ca2+ flux; type: cell-based, mouse; settings: 24 h
Description: Intracellular ROS production was determined by a fluorescence-based ROS Kit (Abcam, ab186027) in KPC cells. This assay measures total ROS species according to vendor’s instructions. This assay is frequently used in cell biology to show the contribution of ROS in the context of ER stress and autophagy^3. Briefly, KPC cells were treated with IRIN (300 µM), OX (500 µM) or TUN (10 µM) for 24 h. Images were captured using a fluorescence microscope. Signal intensity was quantified by Image J software. At least three representative images were analyzed for each treatment. Data represents mean ± SD, n=3. *p<0.05, ***p<0.001, compared to PBS group (1-way ANOVA followed by a Tukey’s test). Bar is 50 µm.
Intracellular Ca^2+ flux was assessed by a Fluo 4 AM assay in KPC cells. The cells were treated with IRIN (300 µM), OX (500 µM) or TUN (10 µM) for 24 h. Images were captured using a fluorescence microscope, followed by data analysis using the Image J software. At least three representative images were analyzed for each treatment. Data represents mean ± SD, n=3. **p<0.01, ***p<0.001, compared to PBS group (1-way ANOVA followed by a Tukey’s test). Bar is 50 µm.
KPC cells were treated with IRIN silicasome at drug dose of 75 µM and 300 µM for 24 hours. PBS and empty silicasome (that is equivalent to drug dose of 300 µM) were included as control. Ca^2+ efflux (panel A) and total ROS (panel B) measurements were performed similar to FIGS. 14 and 15. Data represents mean ± SD, n=3. *p<0.05, **p<0.001, n.s., not significant (1-way ANOVA followed by a Tukey’s test). Panel C) In a separate experiment, KPC cells were seeded in to a 6-well plate, followed by the treatment using silicasome w/wo IRIN (300 µM) for 48 hours. ER marker, CHOP protein, was assayed by western blotting similar to FIG. 2, panel A
Western blotting was also used to detect the ER stress marker, CHOP, and Cleaved Caspase-3 (CC-3). In this case, KPC cells were treated with IRIN at the indicated concentrations (75- 600 µM) for 24 h. In a separate experiment, KPC cells were treated with IRIN (300 µM) and tunicamycin (10 µM) for 4 h. Primary antibodies were purchased from Cell Signaling Technology: β-actin (#3700), vinculin (#13901), CHOP (#2895), and Cleaved Caspase-3 (#9664).

[2] = test system: KPC tumor; test: Vaccination experiment with dying chemo-treated KPC cells; type: in vivo, mouse
Description: The vaccination schedule is highlighted in FIG. 2, panel C. Eight million KPC cells were seeded in a tissue culture dish. After cellular attachment, IRIN (300 µM or OX (500 µM were added for 24 h. Cells were collected and washed before resuspended in 0.8 mL cold PBS. For vaccination, each mouse received subcutaneous (SC) injection of a 100 µL suspension of chemo-treated cells in the right flank. Control animals received SC injection with 0.1 mL PBS. The vaccination was repeated after 7 days. Fourteen days after the 1st injection, the animals received SC injection of normal KPC cells (1 million cells in 0.1 mL PBS) in the contralateral (left) flank. Tumor growth was measured by a digital caliper every 2-3 days, and the tumor volume calculated according to the formula: length × width^2 /2. Animals were sacrificed on day 26 and the tumors were collected, weighed and fixed in 10% formalin, followed by paraffin embedding and sectioning to derive to 4 µm thick slices for IHC analysis. Primary antibodies to CD8 (#14-0808-82) and FoxP3 (#13-5773-82) were purchased from ThermoFisher. IHC staining was performed in the UCLA Translational Pathology Core Laboratory (TPCL). The slides were scanned and images assessed by using Aperio ImageScope software (Leica).

[3] = test system: KPC cells; test: Lysosomal alkalization, LysoTracker Red DND 99 confocal microscopy; type: cell-based, mouse
Description: Approximately 1.5×10^4 KPC cells were seeded in µ-Slide 8 well (ibidi, 80826). To reveal the intracellular distribution of IRIN, attached KPC cells were treated with IRIN (300 µM) for 24 h. Cell membranes were stained using an Alexa Fluor® 594 conjugated WGA dye (Invitrogen™, W11262) at 2 µg/mL for 10 minutes. After washing, the cells were visualized using a Leica SP8-MD confocal microscope under the 100× objective lens. The excitation and emission wavelengths for IRIN were 405 nm and 440~490 nm, respectively^[51]
IRIN-treated KPC cells were washed and replenished with fresh media containing 100 nM DND-99 dye and 5 µg/mL Hoechst 33342 for nuclear staining. The cells were incubated at 37° C. for 0.5 h, followed by washing with phenol red free media. The cells were then visualized using a Leica SP8-MD confocal microscope under the 100× objective lens.
The of the IRIN silicasome on lysosomal alkalization was performed at drug concentrations of 75 µM and 300 µM in KPC cells. Empty silicasomes (in which a 500 µg/mL particle dose is representative of an encapsulated IRIN dose of 300 µM) was included as control. The assessment of LC3B, p62 and PD-L1 immunoblotting and IF staining were performed in KPC cells during treatment with the IRIN silicasome or empty silicasomes, as described for the free drug.

CCc1c2c(nc3ccc(OC(=O)N4CCC(N5CCCCC5)CC4)cc13)-c1cc3c(c(=O)n1C2)COC(=O)[C@]3(O)CC [IRIN, Irinotecan hydrochloride trihydrate]
intracellular Ca2+ release (Fluo-4 AM assay) ([1]; IRIN 300 µM): response profile similar to ROS production
total ROS production ([1]; IRIN 300 µM): robust generation ROS production
CHOP expression (immunoblotting) ([1]; IRIN 75-600 µM): sizable and dose-dependent increase in CHOP expression
cleaved caspase-3 (CC-3) expression ([1]; IRIN 75-600 µM): increased expression of cleaved caspase-3
growth of tumor on the opposite flank vs PBS control ([2]; KPC cells treated with 300 µM IRIN or 500 µM OX, p <0.05): improved the shrinkage of the tumor on the opposite flank significantly
tumor disappearance at harvesting ([2]; day 26): total tumor disappearance in one IRIN-treated animal
CD8+ staining number (IHC) ([2]; harvested tumors, day 26): no significant increase
CD8+/Treg cells ratio (IHC) ([2]; harvested tumors, day 26): significantly (p <0.01) increased
FoxP3+ expression (IHC) ([2]; harvested tumors, day 26): significantly (p<0.01) decreased
time at which a major DND 99 signal drop is observed ([3]; 300 µM free IRIN): 1 h
IRIN dose at which a major DND 99 signal drop is discerned ([3]; 24 hours): 20 µM
DND 99 relative staining intensity ([3]; IRIN 300 µM, 24 h, untreated cells 57.9 ± 1.3, Image J): 13.9 ± 0.9
